# Measured values: patent US10065973B2, “Substituted aminothiazolopyrimidinedione for the treatment and prophylaxis of virus infection” (Hoffmann-La Roche Inc., priority 2016, dated 2018)
# Test system: human hepatocytes
# Assay: Metabolic conversion of prodrugs to active form in human hepatocytes
# Format: in vitro ADME
# Settings: active metabolites Example 10-A and penciclovir, respectively
# Excerpt: Metabolism of Prodrugs: Compounds of Formula (II) A study was undertaken to evaluate the metabolic conversion of prodrugs, compounds of formula (II) or (IIa), to compounds of formula (I) or (Ia) of the present invention. The produgs, compounds of formula (II) or (IIa), can be metabolized to the active compound of formula (I) or (Ia) and other compounds of the invention in the body if they are served as prodrugs. Hepatocytes are often used to assess the degree of metabolic conversion of prodrugs in the body of animal or human. A study was undertaken to evaluate the metabolic conversion of prodrug Example 21, Example 22, Example 23, Example 24, Example 25 and Example 26, to the corresponding active form, Example 10-A, in the presence of human hepatocytes. The formation of active form, Example 10-A, was monitored in the study. For comparison, the metabolic conversion of famciclovir to penciclovir was also assessed. Cryopreserved hepatocytes plating medium (Cat.#: PY-HMD-03) was purchased from RILD Research Institute for Liver Diseases (Shanghai) Co. Ltd. Cryopreserved human hepatocyte (Cat.#: X008005, Lot#:VRR) was purchased from BioreclamationIVT (Baltimore, Md.). The stock hepatocyte suspension was prepared from cryopreserved hepatocytes in plating medium at the concentration of 1.8×10^6 cells/mL. Compounds were dissolved in DMSO to make 10 mM stock solutions. 10 μL of the stock solution was diluted to 990 μL plating medium to get a 100 μM working solution. Reaction suspensions were prepared in 24-well cell culture plate by mixing 200 μL of hepatocytes suspension (human) and 200 μL of working solution. The final incubation contained 0.9×10^6 cells/mL and 50 μM compound. The above mixtures were incubated at 37° C. in a humidified 5% CO2 atmosphere, with a 900 rpm shaking. After 180 min of incubation, 200 μL of the incubation mixture was transferred to 1.5 mL tube and quenched with 400 μL stop solution (ice-cold acetonitrile with 0.2 μM Tolbutamide as internal standard). The samples were centrifuged at 14000 rpm for 10 minutes and the resultant supernatants were subjected to LC-MS/MS analysis. The calibration curves were prepared in the following way. To a 200 μL of cell suspension (cell density of 1.8 million cells/mL), 198 μL of hepatocyte plating medium and 2 μL of the appropriate concentration of the compound in DMSO were added. Samples were mixed thoroughly and 200 μL of the mixture was transferred to 400 μL of the stop solution (see above). The standard curve range is from 1 μM to 25 μM. The compounds were quantified on an API5500 […] instrument in the ESI-Positive MRM mode.
row,Compound,metabolic conversion to active metabolite in human hepatocytes
1,"CC[C@H](O)[C@@H]1C[C@@H]([C@@H](C)OC(C)=O)[C@H](n2c(=O)sc3cnc(N)nc32)O1 [Example 21, [(1R)-1-[(2R,3S,5S)-2-(5-Amino-2-oxo-thiazolo[4,5-d]pyrimidin-3-yl)-5-[(1S)-1-hydroxypropyl]tetrahydrofuran-3-yl]ethyl] acetate]",metabolized to yield the corresponding active metabolites
2,"CC[C@H](OC(C)=O)[C@@H]1C[C@@H]([C@@H](C)O)[C@H](n2c(=O)sc3cnc(N)nc32)O1 [Example 22, [(1S)-1-[(2S,4S,5R)-5-(5-Amino-2-oxo-thiazolo[4,5-d]pyrimidin-3-yl)-4-[(1R)-1-hydroxyethyl]tetrahydrofuran-2-yl]propyl] acetate]",metabolized to yield the corresponding active metabolites
3,"CC[C@H](O)[C@@H]1C[C@@H]([C@@H](C)OC(=O)C(C)C)[C@H](n2c(=O)sc3cnc(N)nc32)O1 [Example 23, [(1R)-1-[(2R,3S,5S)-2-(5-Amino-2-oxo-thiazolo[4,5-d]pyrimidin-3-yl)-5-[(1S)-1-hydroxypropyl]tetrahydrofuran-3-yl]ethyl] 2-methylpropanoate]",metabolized to yield the corresponding active metabolites
4,"CC[C@H](O)[C@@H]1C[C@@H]([C@@H](C)OC(=O)C(C)(C)C)[C@H](n2c(=O)sc3cnc(N)nc32)O1 [Example 24, [(1R)-1-[(2R,3S,5S)-2-(5-Amino-2-oxo-thiazolo[4,5-d]pyrimidin-3-yl)-5-[(1S)-1-hydroxypropyl]tetrahydrofuran-3-yl]ethyl] 2,2-dimethylpropanoate]",metabolized to yield the corresponding active metabolites
5,"CC[C@H](O)[C@@H]1C[C@@H]([C@@H](C)OC(=O)CC(C)C)[C@H](n2c(=O)sc3cnc(N)nc32)O1 [Example 25, [(1R)-1-[(2R,3S,5S)-2-(5-Amino-2-oxo-thiazolo[4,5-d]pyrimidin-3-yl)-5-[(1S)-1-hydroxypropyl]tetrahydrofuran-3-yl]ethyl] 3-methylbutanoate]",metabolized to yield the corresponding active metabolites
6,"CCOC(=O)O[C@H](C)[C@@H]1C[C@@H]([C@@H](O)CC)O[C@H]1n1c(=O)sc2cnc(N)nc21 [Example 26, [(1R)-1-[(2R,3S,5S)-2-(5-Amino-2-oxo-thiazolo[4,5-d]pyrimidin-3-yl)-5-[(1S)-1-hydroxypropyl]tetrahydrofuran-3-yl]ethyl] ethyl carbonate]",metabolized to yield the corresponding active metabolites
7,"CC(=O)OCC(CCn1cnc2cnc(N)nc21)COC(C)=O [Famciclovir, famciclovir, reference compound]",metabolized to yield the corresponding active metabolites
